Assay results reported in patent publication US7005437B2, “Substituted aryl and heteroaryl derivatives, the preparation thereof and the use therof as pharmaceutical compositions” (Boehringer Ingelheim Pharma KG, priority 2001, dated 2006).
Counter-ions that a name gives are not always drawn.

Target: T1, human factor Xa (Homo sapiens, UniProt P00742)
T1 construct: released from the colourless chromogenic substrate by human factor Xa; purchased Roche
Experiment: Factor Xa inhibition, enzyme-kinetic measurement with chromogenic substrate
Assay type: biochemical
Conditions: chromogenic substrate Chromozym X, pNA release at 405 nm, pH 8.0, 37° C.
Procedure: The compounds of Examples 1 to 45 of the present application were investigated for their effect on the inhibition of factor Xa as follows: Method: Enzyme-kinetic measurement with chromogenic substrate. The quantity of p-nitroaniline (pNA) released from the colourless chromogenic substrate by human factor Xa is determined photometrically at 405 nm. It is proportional to the activity of the enzyme used. The inhibition of the enzyme activity by the test substance (in relation to the solvent control) is determined at various concentrations of test substance and from this the IC50 is calculated, as the concentration which inhibits the factor Xa used by 50%.
Tris(hydroxymethyl)-aminomethane buffer (100 mMol) of and sodium chloride (150 mMol), pH 8.0
Factor Xa (Roche), spec. activity: 10 U/0.5 ml, final concentration: 0.175 U/ml for each reaction mixture
Substrate Chromozym X (Roche), final concentration: 200 μMol/l for each reaction mixture
10 μl of a 23.5-times concentrated starting solution of the test substance or solvent (control), 175 μl of tris(hydroxymethyl)-aminomethane buffer and 25 μl of a 1.65 U/ml Factor Xa working solution are incubated for 10 minutes at 37° C. After the addition of 25 μl of Chromozym X working solution ([…]) the sample is measured in a photometer (SpectraMax 250) at 405 nm for 150 seconds at 37° C.
1. […]

T1 sequence (P00742 235-488 limits assumed): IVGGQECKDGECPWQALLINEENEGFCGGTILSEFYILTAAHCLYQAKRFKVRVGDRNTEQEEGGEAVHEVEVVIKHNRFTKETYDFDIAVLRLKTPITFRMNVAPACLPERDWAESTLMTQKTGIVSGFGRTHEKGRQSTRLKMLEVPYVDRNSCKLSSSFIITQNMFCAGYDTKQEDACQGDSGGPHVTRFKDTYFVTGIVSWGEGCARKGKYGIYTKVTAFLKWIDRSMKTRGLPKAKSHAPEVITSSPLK
T1 sequence (P00742 41-179 partner limits assumed): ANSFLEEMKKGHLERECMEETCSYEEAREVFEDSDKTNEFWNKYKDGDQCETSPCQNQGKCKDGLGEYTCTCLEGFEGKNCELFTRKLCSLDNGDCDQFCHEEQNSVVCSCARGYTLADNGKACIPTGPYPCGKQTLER

Question: `Cc1cc(C#CCN(Cc2ccccc2)c2cccc(C(=N)N)c2)ccc1C(=O)N1CC=CC1` [Example 37, 3-{N-benzyl-3-[3-methyl-4-(2,5-dihydropyrrol-1-yl-carbonyl)-phenyl]-propargylamino}-benzamidine-hydrochloride] was tested. Which IC50 did it give?
Answer: Its IC50 is 4 nM.
